From patent US9346809B2 (LEO PHARMA A/S, priority 2009, dated 2016) come the findings set out here.

As usually defined, the EC50 is the concentration needed to bring the measured effect to its halfway point.

What all share (format): biochemical
Assay [1] addresses T1, JAK1 (aa 850-1154, catalytic domain, GST-tag) (Homo sapiens, UniProt P23458).
T1 construct: JAK1 (aa 850-1154) and TYK2 (aa 871-1187) are expressed with an N-terminally fused GST-tag; GST (N); purchased Carna Biosciences, Inc; host or cells: baculovirus expression system
Nature of the assay: JAK kinase assay (HTRF, phosphorylation of TK substrate-biotin), JAK1. As to conditions: ATP at Km (7 μM). A digest of the protocol: (§1)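 Per reaction, 5 ng JAK1, 0.1 ng JAK2, 0.3 ng JAK3 or 0.8 ng TYK2 (baculovirus-expressed catalytic domains) acted on 1 μM TK substrate-biotin at Km ATP for 20-30 min, RT. Phosphorylation measured by HTRF.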

The target in assay [2] is T2, JAK2 (catalytic domain, His-tag) (Homo sapiens, UniProt O60674).
T2 construct: All four purified enzymes contain only the catalytic domain; His (N); purchased Carna Biosciences, Inc; host or cells: baculovirus expression system
T2 sequence (O60674 849-1124 limits assumed): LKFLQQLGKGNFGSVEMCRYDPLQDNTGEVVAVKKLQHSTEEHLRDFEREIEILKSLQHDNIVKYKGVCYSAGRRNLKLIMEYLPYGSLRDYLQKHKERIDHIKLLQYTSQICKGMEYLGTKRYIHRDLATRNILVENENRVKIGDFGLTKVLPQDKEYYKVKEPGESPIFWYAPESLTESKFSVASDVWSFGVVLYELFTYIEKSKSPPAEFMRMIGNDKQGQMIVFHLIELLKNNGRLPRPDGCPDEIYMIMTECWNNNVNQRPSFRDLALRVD
The assay can be described thus: JAK kinase assay (HTRF, phosphorylation of TK substrate-biotin), JAK2. As to conditions: ATP at Km (4 μM). A digest of the protocol:
as §1

For assay [3], the target named is T3, JAK3 (catalytic domain, His-tag) (Homo sapiens, UniProt P52333).
T3 construct: All four purified enzymes contain only the catalytic domain; His (N); purchased Carna Biosciences, Inc; host or cells: baculovirus expression system
T3 sequence (P52333 822-1111 limits assumed): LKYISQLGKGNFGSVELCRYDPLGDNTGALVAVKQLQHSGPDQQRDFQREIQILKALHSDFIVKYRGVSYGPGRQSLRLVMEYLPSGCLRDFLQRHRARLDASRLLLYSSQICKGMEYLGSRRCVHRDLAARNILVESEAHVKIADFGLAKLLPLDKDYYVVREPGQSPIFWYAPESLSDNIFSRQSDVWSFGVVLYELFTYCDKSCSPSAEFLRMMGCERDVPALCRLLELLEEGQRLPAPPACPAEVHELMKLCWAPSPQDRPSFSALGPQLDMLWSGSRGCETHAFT
The assay can be described thus: JAK kinase assay (HTRF, phosphorylation of TK substrate-biotin), JAK3. As to conditions: ATP at Km (2 μM). Summed up: as §1

Assay [4] concerns the target T4, TYK2 (aa 871-1187, catalytic domain, GST-tag) (Homo sapiens, UniProt P29597).
T4 construct: JAK1 (aa 850-1154) and TYK2 (aa 871-1187) are expressed with an N-terminally fused GST-tag; GST (N); purchased Carna Biosciences, Inc; host or cells: baculovirus expression system
T4 sequence (P29597 871-1187): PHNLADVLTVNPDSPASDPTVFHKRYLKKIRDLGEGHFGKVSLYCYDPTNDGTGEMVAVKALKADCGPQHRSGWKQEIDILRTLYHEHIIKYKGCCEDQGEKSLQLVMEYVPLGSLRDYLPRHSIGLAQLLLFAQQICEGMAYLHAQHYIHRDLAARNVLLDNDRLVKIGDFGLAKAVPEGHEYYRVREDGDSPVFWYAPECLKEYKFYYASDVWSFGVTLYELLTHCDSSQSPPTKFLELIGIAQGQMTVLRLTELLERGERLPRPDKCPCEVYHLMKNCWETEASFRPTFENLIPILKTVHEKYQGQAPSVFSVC
Nature of the assay: JAK kinase assay (HTRF, phosphorylation of TK substrate-biotin), TYK2. As to conditions: ATP at Km (13 μM). A digest of the protocol:
as §1

[5] abbreviates: read-out: JAK1 kinase inhibitory activity (EC50 indicator).
[6] abbreviates: read-out: JAK2 kinase inhibitory activity (EC50 indicator).
Setting [7] is: read-out: JAK3 kinase inhibitory activity (EC50 indicator).
[8] abbreviates: read-out: TYK2 kinase inhibitory activity (EC50 indicator).
Where [9] appears, read: HTRF assay, read-out: JAK1 kinase inhibitory activity (EC50).
The mark [10] stands for this setting: HTRF assay, read-out: JAK2 kinase inhibitory activity (EC50).
The mark [11] stands for this setting: HTRF assay, read-out: JAK3 kinase inhibitory activity (EC50).
[12] abbreviates: HTRF assay, read-out: TYK2 kinase inhibitory activity (EC50).
Where [13] appears, read: HTRF assay, read-out: JAK1 kinase inhibitory activity (EC50 indicator).
The mark [14] stands for this setting: HTRF assay, read-out: JAK2 kinase inhibitory activity (EC50 indicator).
The mark [15] stands for this setting: HTRF assay, read-out: JAK3 kinase inhibitory activity (EC50 indicator).
Setting [16] is: HTRF assay, read-out: TYK2 kinase inhibitory activity (EC50 indicator).

Read-outs that look alike come from different tables or passages of the source.

T1 sequence (P23458 850-1154): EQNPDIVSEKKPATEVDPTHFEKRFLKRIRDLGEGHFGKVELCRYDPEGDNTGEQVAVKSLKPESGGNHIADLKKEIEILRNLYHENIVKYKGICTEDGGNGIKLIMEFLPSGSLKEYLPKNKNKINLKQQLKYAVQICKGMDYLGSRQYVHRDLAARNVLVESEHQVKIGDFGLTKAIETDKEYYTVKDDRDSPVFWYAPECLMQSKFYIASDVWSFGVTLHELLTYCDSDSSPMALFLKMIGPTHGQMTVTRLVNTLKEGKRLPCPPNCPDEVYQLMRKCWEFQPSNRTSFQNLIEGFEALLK

For the molecule `NS(=O)(=O)c1ccc(C(=O)C(=O)N2CCN(c3ncnc4[nH]ccc34)CC23CC3)cc1` [Example 63, 4-{2-Oxo-2-[7-(7H-pyrrolo[2,3-d]pyrimidin-4-yl)-4,7-diaza-spiro[2.5]oct-4-yl]-acetyl}-benzenesulfonamide], the 50% effective concentration (EC50) in assay [1] (setting [5]), in assay [2] (setting [6]), in assay [3] (setting [7]) and in assay [4] (setting [8]) was less than 100 nM throughout.

Turning to `S=C(NC1CCCCC1)N1CCN(c2ncnc3[nH]ccc23)CC12CC2` [Example 437, 7-(7H-Pyrrolo[2,3-d]pyrimidin-4-yl)-4,7-diaza-spiro[2.5]octane-4-carbothioic acid cyclohexylamide], the EC50 in assay [1] (setting [9]) is greater than 500 nM; in assay [2] (setting [10]), 100 to 500 nM; in assay [3] (setting [11]) it was greater than 500 nM; in assay [4] (setting [12]), greater than 500 nM.

As for `CC(C)(C)[S+]([O-])N1CCN(c2ncnc3[nH]ccc23)CC12CC2` (stereo not shown) [Example 449, 4-[4-(2-Methyl-propane-2-sulfinyl)-4,7-diaza-spiro[2.5]oct-7-yl]-7H-pyrrolo[2,3-d]pyrimidine], the EC50 in assay [1] (setting [9]) was greater than 500 nM; in assay [2] (setting [10]), 100 to 500 nM; in assay [3] (setting [11]) it was greater than 500 nM; in assay [4] (setting [12]), greater than 500 nM.

As for `N#CCc1ccc(C(=O)N2[C@@H]3CC[C@@H]2CN(c2ncnc4[nH]ccc24)C3)cc1` [Example 175, {4-[3-(7H-Pyrrolo[2,3-d]pyrimidin-4-yl)-3,8-diaza-bicyclo[3.2.1]octane-8-carbonyl]-phenyl}-acetonitrile], the EC50 in assay [1] (setting [5]) was less than 100 nM; in assay [2] (setting [6]) it was less than 100 nM; in assay [3] (setting [7]), 100 to 500 nM; in assay [4] (setting [8]), greater than 500 nM.

`NS(=O)(=O)c1ccc(C(=O)N2CCN(c3ncnc4[nH]ccc34)CC23CC3)cc1Cl` [Example 103, 2-Chloro-4-[7-(7H-pyrrolo[2,3-d]pyrimidin-4-yl)-4,7-diaza-spiro[2.5]octane-4-carbonyl]-benzenesulfonamide]: the EC50 in assay [1] (setting [5]), in assay [2] (setting [6]), in assay [3] (setting [7]) and in assay [4] (setting [8]) was less than 100 nM each time.

For the molecule `O=C(NC1CCCCC1)N1[C@@H]2CC[C@H]1CN(c1ncnc3[nH]ccc13)C2` [Example 46, 3-(7H-Pyrrolo[2,3-d]pyrimidin-4-yl)-3,8-diaza-bicyclo[3.2.1]octane-8-carboxylic acid cyclohexylamide], the concentration giving a half-maximal response (EC50) in assay [1] (setting [5]) was 100 to 500 nM; in assay [2] (setting [6]), 100 to 500 nM; in assay [3] (setting [7]) it was greater than 500 nM; in assay [4] (setting [8]), greater than 500 nM.

As for `O=C(c1cccnc1)N1CCN(c2ncnc3[nH]ccc23)CC12CC2` [Example 42, Pyridin-3-yl-[7-(7H-pyrrolo[2,3-d]pyrimidin-4-yl)-4,7-diazaspiro[2.5]oct-4-yl]methanone], the 50% effective concentration (EC50) in assay [1] (setting [5]) is less than 100 nM; in assay [2] (setting [6]) it was less than 100 nM; in assay [3] (setting [7]), 100 to 500 nM; in assay [4] (setting [8]), greater than 500 nM.

Turning to `N#Cc1cccc(CC(=O)N2CCN(c3ncnc4[nH]ccc34)CC23CC3)c1` [Example 25, 3-{2-Oxo-2-[7-(7H-pyrrolo[2,3-d]pyrimidin-4-yl)-4,7-diazaspiro[2.5]oct-4-yl]-ethyl}benzonitrile], the EC50 in assay [1] (setting [5]) is 100 to 500 nM; in assay [2] (setting [6]) it was less than 100 nM; in assay [3] (setting [7]) it was 100 to 500 nM; in assay [4] (setting [8]), greater than 500 nM.

Take `N#Cc1ccc(CS(=O)(=O)N2[C@@H]3CC[C@H]2CN(c2ncnc4[nH]ccc24)C3)cc1` [Example 78, 4-[3-(7H-Pyrrolo[2,3-d]pyrimidin-4-yl)-3,8-diaza-bicyclo[3.2.1]octane-8-sulfonylmethyl]-benzonitrile]: the EC50 was less than 100 nM in assay [1] (setting [5]), 100 to 500 nM in assay [2] (setting [6]), 100 to 500 nM in assay [3] (setting [7]) and greater than 500 nM in assay [4] (setting [8]).

As to `N#Cc1cccc(C(=O)N2CCN(c3ccnc4[nH]ccc34)CC23CC3)c1` [Example 227, 3-[7-(1H-Pyrrolo[2,3-b]pyridin-4-yl)-4,7-diaza-spiro[2.5]octane-4-carbonyl]-benzonitrile], the 50% effective concentration (EC50) in assay [1] (setting [13]) was less than 100 nM; in assay [2] (setting [14]) it was less than 100 nM; in assay [3] (setting [15]), 100 to 500 nM; in assay [4] (setting [16]) it was greater than 500 nM.

As to `COC(=O)c1cc2c(N3CCN(C(=O)Cc4ccc(C(F)(F)F)cc4)C4(CC4)C3)ncnc2[nH]1` [Example 338, 4-{4-[2-(4-Trifluoromethyl-phenyl)-acetyl]-4,7-diaza-spiro[2.5]oct-7-yl}-7H-pyrrolo[2,3-d]pyrimidine-6-carboxylic acid methyl ester], the half-maximal effective concentration (EC50) in assay [1] (setting [13]), in assay [2] (setting [14]), in assay [3] (setting [15]) and in assay [4] (setting [16]) was greater than 500 nM each time.

For the molecule `COC(=O)c1cc2c(N3CCN(C(=O)Cc4ccc(F)cc4)C4(CC4)C3)ncnc2[nH]1` [Example 337, 4-{4-[2-(4-Fluoro-phenyl)-acetyl]-4,7-diaza-spiro[2.5]oct-7-yl}-7H-pyrrolo[2,3-d]pyrimidine-6-carboxylic acid methyl ester], the EC50 in assay [1] (setting [13]), in assay [2] (setting [14]), in assay [3] (setting [15]) and in assay [4] (setting [16]) was greater than 500 nM throughout.

On to `COc1csc(C(=O)N2CCN(c3ncnc4[nH]ccc34)CC23CC3)c1` [Example 386, (4-Methoxy-thiophen-2-yl)-[7-(7H-pyrrolo[2,3-d]pyrimidin-4-yl)-4,7-diaza-spiro[2.5]oct-4-yl]-methanone], for which the concentration for a half-maximal effect (EC50) in assay [1] (setting [13]), in assay [2] (setting [14]), in assay [3] (setting [15]) and in assay [4] (setting [16]) was less than 100 nM throughout.

As for `O=C(c1cccc(OC(F)(F)F)c1)N1CCN(c2ccnc3[nH]ccc23)CC12CC2` [Example 229, [7-(1H-Pyrrolo[2,3-b]pyridin-4-yl)-4,7-diaza-spiro[2.5]oct-4-yl]-(3-trifluoromethoxy-phenyl)-methanone], the half-maximal effective concentration (EC50) in assay [1] (setting [13]) was 100 to 500 nM; in assay [2] (setting [14]), 100 to 500 nM; in assay [3] (setting [15]), greater than 500 nM; in assay [4] (setting [16]), greater than 500 nM.

On to `O=C(CNc1ccccc1)N1CCN(c2ncnc3[nH]ccc23)CC12CC2` [Example 451, 2-Phenylamino-1-[7-(7H-pyrrolo[2,3-d]pyrimidin-4-yl)-4,7-diaza-spiro[2.5]oct-4-yl]-ethanone], for which the EC50 in assay [1] (setting [9]) is less than 100 nM; in assay [2] (setting [10]) it was less than 100 nM; in assay [3] (setting [11]), 100 to 500 nM; in assay [4] (setting [12]) it was greater than 500 nM.

Regarding `O=C(c1ccc(S(=O)(=O)NCCc2cccs2)cc1)N1CCN(c2ncnc3[nH]ccc23)CC12CC2` [Example 397, 4-[7-(7H-Pyrrolo[2,3-d]pyrimidin-4-yl)-4,7-diaza-spiro[2.5]octane-4-carbonyl]-N-(2-thiophen-2-yl-ethyl)-benzenesulfonamide], the concentration giving a half-maximal response (EC50) in assay [1] (setting [13]) is less than 100 nM; in assay [2] (setting [14]), less than 100 nM; in assay [3] (setting [15]), 100 to 500 nM; in assay [4] (setting [16]), 100 to 500 nM.

On to `Cc1c[nH]c2ncnc(N3CCN(C(=O)Cc4cccc(CC#N)c4)C4(CC4)C3)c12` [Example 327, (3-{2-[7-(5-Methyl-7H-pyrrolo[2,3-d]pyrimidin-4-yl)-4,7-diaza-spiro[2.5]oct-4-yl]-2-oxo-ethyl}-phenyl)-acetonitrile], for which the concentration for a half-maximal effect (EC50) in assay [1] (setting [13]), in assay [2] (setting [14]), in assay [3] (setting [15]) and in assay [4] (setting [16]) was greater than 500 nM throughout.

As for `O=C(Cc1ccccc1)N1CCN(c2ncnc3[nH]ccc23)CC12CC2` [Example 152, 2-Phenyl-1-[7-(7H-pyrrolo[2,3-d]pyrimidin-4-yl)-4,7-diaza-spiro[2.5]oct-4-yl]-ethanone], the concentration for a half-maximal effect (EC50) in assay [1] (setting [5]) is less than 100 nM; in assay [2] (setting [6]), less than 100 nM; in assay [3] (setting [7]) it was less than 100 nM; in assay [4] (setting [8]), 100 to 500 nM.

As to `O=C(CC1CCCC1)N1[C@@H]2CC[C@H]1CN(c1ncnc3[nH]ccc13)C2` [Example 38, 2-Cyclopentyl-1-[3-(7H-pyrrolo[2,3-d]pyrimidin-4-yl)-3,8-diazabicyclo[3.2.1]oct-8-yl]ethanone], the EC50 is less than 100 nM in assay [1] (setting [5]), less than 100 nM in assay [2] (setting [6]), 100 to 500 nM in assay [3] (setting [7]) and greater than 500 nM in assay [4] (setting [8]).
